This note sets out measurements from ChEMBL document CHEMBL1201862, “PubChem BioAssay data set” (2004).

Among the test systems are EKVX; HL-60; MCF7; HCT-15; NCI-H522; SF-268; 786-0; UACC-62; A549; SF-295; COLO 205; SNB-19; SK-MEL-5; TK-10; HOP-92; SN12C; T47D; OVCAR-8; RPMI-8226; PC-3.
What all share (experiment): NCI tumour cell line growth inhibition, 48 h

Each structure is given as a SMILES string.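 Cells were grown in 96-well plates and exposed to each compound for 48 hours at five concentrations; endpoints were interpolated linearly between bracketing concentrations, or set to the highest concentration if not reached. GI50 is the concentration that inhibits growth by half.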 Calls of active or inactive are those of the source. Cut-off read from the data, not from the text of the source: active = GI50 up to about 1.1 µM and inactive = higher.

Regarding `CC1C(c2ccccc2O)c2cc3c(cc2OC1N1CCCC1)OCO3` (stereo not given), the GI50 was 41.9 µM (inactive) in the assay with EKVX; 19.2 µM (inactive) with HL-60; 26.5 µM (inactive) in the assay with MCF7; 19.8 µM with HCT-15; 23.2 µM (inactive) in the assay with NCI-H522; 33.3 µM (inactive) with SF-268. For the same compound, the GI50 in the assay on 786-0 was 20 µM (inactive); in the assay with UACC-62, 35.5 µM (inactive); in the assay on A549, 31 µM (inactive); in the assay on SF-295, 27.2 µM (inactive); in the assay with COLO 205, 23.3 µM (inactive); in the assay on SNB-19, 49.4 µM (inactive). The GI50 with SK-MEL-5 was 39.2 µM (inactive); in the assay on TK-10, 39.2 µM (inactive); in the assay with HOP-92, 19.8 µM (inactive); in the assay with SN12C, 19.4 µM (inactive); in the assay on T47D it was 34.7 µM (inactive); in the assay on OVCAR-8, 11.5 µM (inactive). Further, the GI50 is 24.5 µM (inactive) with RPMI-8226 and 28.1 µM (inactive) with PC-3.

In the case of `CNC(=O)CN(C)C(=O)CCC(=O)N(C)C`, the GI50 in the assay with EKVX is > 100 µM (inactive); in the assay on HL-60, > 100 µM (inactive); in the assay on MCF7, > 100 µM (inactive); in the assay with HCT-15, above 100 µM; with NCI-H522, > 100 µM (inactive); in the assay on SF-268, > 100 µM (inactive). In addition, the GI50 in the assay on 786-0, in the assay on UACC-62, in the assay on A549, in the assay with SF-295, with COLO 205 and with SNB-19 was > 100 µM (inactive) each time. For the same compound, the GI50 in the assay on SK-MEL-5, in the assay on TK-10, with HOP-92, in the assay with SN12C, in the assay on T47D and in the assay on OVCAR-8 was > 100 µM (inactive) in each case. For the same compound, the GI50 in the assay on RPMI-8226 and with PC-3 was > 100 µM (inactive) each time.

In the case of `OC(c1cc(-c2ccccc2)nc2c1ccc1ccccc12)C1CCCCN1` (stereo not given), the GI50 with EKVX is 1.93 µM (inactive); in the assay with HL-60, 0.855 µM (active); with MCF7, 1.87 µM (inactive); in the assay with HCT-15 it was 2.12 µM; with NCI-H522, 1.58 µM (inactive); in the assay on SF-268 it was 1.43 µM (inactive). The GI50 is 1.64 µM (inactive) with 786-0; 1.85 µM (inactive) with UACC-62; 1.85 µM (inactive) in the assay on A549; 1.97 µM (inactive) with SF-295; 1.95 µM (inactive) in the assay with COLO 205; 1.82 µM (inactive) in the assay with SNB-19. For the same compound, the GI50 in the assay with SK-MEL-5 was 2.8 µM (inactive); in the assay on TK-10 it was 1.75 µM (inactive); in the assay on HOP-92, 1.62 µM (inactive); with SN12C, 1.62 µM (inactive); with T47D, 1.93 µM (inactive); with OVCAR-8, 1.96 µM (inactive). Further, the GI50 in the assay on RPMI-8226 was 1.12 µM (active); in the assay on PC-3, 1.71 µM (inactive).

Consider `COc1ccc2c(c1)CN1C(=N2)CSC1c1cc([N+](=O)[O-])ccc1Cl` (stereo not given), for which the GI50 is 23.6 µM (inactive) with EKVX; 16.8 µM (inactive) in the assay with HL-60; 28.2 µM (inactive) with MCF7; 30.6 µM with HCT-15; 32.3 µM (inactive) with NCI-H522; 46.6 µM (inactive) in the assay with SF-268. Further, the GI50 is 37.9 µM (inactive) in the assay on 786-0; 23.2 µM (inactive) with UACC-62; 33.2 µM (inactive) with A549; 39.4 µM (inactive) in the assay with SF-295; 30.8 µM (inactive) in the assay on COLO 205; 52.6 µM (inactive) in the assay on SNB-19. Further, the GI50 in the assay on SK-MEL-5 was 25.6 µM (inactive); in the assay on TK-10, > 100 µM (inactive); in the assay on HOP-92, 37.4 µM (inactive); in the assay with SN12C it was 65.6 µM (inactive); in the assay on T47D, 32.4 µM (inactive); in the assay on OVCAR-8, 48.8 µM (inactive). The GI50 is 21 µM (inactive) in the assay with RPMI-8226 and 36.1 µM (inactive) in the assay with PC-3.

Regarding `COC(=O)C1=C(C)NC(C)=C(C(=O)OC)C1c1ccc(N=O)cc1`, the GI50 was 17 µM (inactive) in the assay with EKVX; 1.3 µM (inactive) in the assay on HL-60; 17.9 µM (inactive) in the assay with MCF7; 9.53 µM in the assay on HCT-15; 1.15 µM (inactive) in the assay with NCI-H522; 22.1 µM (inactive) with SF-268. For the same compound, the GI50 with 786-0 was 14.6 µM (inactive); in the assay with UACC-62 it was 15.3 µM (inactive); in the assay on A549, 24.5 µM (inactive); in the assay with SF-295, 24.4 µM (inactive); with COLO 205 it was 8.77 µM (inactive); with SNB-19 it was 38.7 µM (inactive). Further, the GI50 in the assay with SK-MEL-5 was 16.6 µM (inactive); with TK-10, 15.4 µM (inactive); with HOP-92, 2.54 µM (inactive); in the assay on SN12C, 19.5 µM (inactive); with T47D, 6.62 µM (inactive); with OVCAR-8, 8.45 µM (inactive). Further, the GI50 was 1.58 µM (inactive) in the assay with RPMI-8226 and 15.8 µM (inactive) in the assay on PC-3.

As to `CCN(CC)CCOc1ccc(N2C(=O)c3cc(OC)c(OC)cc3C2=O)cc1`, the GI50 with EKVX is > 100 µM (inactive); in the assay with HL-60 it was > 100 µM (inactive); in the assay with MCF7, > 100 µM (inactive); in the assay with HCT-15 it was above 100 µM; with NCI-H522, > 100 µM (inactive); with SF-268, > 100 µM (inactive). Moreover, the GI50 in the assay on 786-0, with UACC-62, in the assay with A549, with SF-295, in the assay with COLO 205 and in the assay with SNB-19 was > 100 µM (inactive) in each case. The GI50 in the assay on SK-MEL-5, in the assay on TK-10, in the assay on HOP-92, with SN12C, in the assay on T47D and with OVCAR-8 was > 100 µM (inactive) in each case. In addition, the GI50 in the assay on RPMI-8226 and with PC-3 was > 100 µM (inactive) each time.

On to `O=C(O)C1CCCN1C(=O)c1cc(Cl)ccn1` (stereo not given), for which the GI50 in the assay on EKVX is > 100 µM (inactive); in the assay on HL-60 it was > 100 µM (inactive); in the assay with MCF7, > 100 µM (inactive); in the assay on HCT-15 it was above 100 µM; in the assay with NCI-H522 it was > 100 µM (inactive); in the assay on SF-268 it was > 100 µM (inactive). Moreover, the GI50 with 786-0, in the assay on UACC-62, in the assay on A549, with SF-295, with COLO 205 and in the assay with SNB-19 was > 100 µM (inactive) throughout. For the same compound, the GI50 with SK-MEL-5, with TK-10, in the assay on HOP-92, in the assay on SN12C, in the assay on T47D and with OVCAR-8 was > 100 µM (inactive) in each case. Also, the GI50 with RPMI-8226 and in the assay with PC-3 was > 100 µM (inactive) throughout.

As for `CCOC(=O)OC1(c2ccccc2)CCN(C)CC1`, the GI50 with EKVX was > 100 µM (inactive); with HL-60 it was > 100 µM (inactive); in the assay with MCF7 it was > 100 µM (inactive); in the assay with HCT-15 it was above 100 µM; in the assay with NCI-H522, > 100 µM (inactive); in the assay on SF-268, > 100 µM (inactive). In addition, the GI50 with 786-0, in the assay with UACC-62, in the assay on A549, with SF-295, in the assay on COLO 205 and with SNB-19 was > 100 µM (inactive) throughout. For the same compound, the GI50 in the assay on SK-MEL-5, with TK-10, with HOP-92, with SN12C, in the assay on T47D and with OVCAR-8 was > 100 µM (inactive) throughout. Also, the GI50 in the assay with RPMI-8226 and in the assay with PC-3 was > 100 µM (inactive) throughout.

With `O=[N+]([O-])c1ccc(Cl)cc1/C=N/C12CC3CC(CC(C3)C1)C2`, the GI50 in the assay with EKVX is > 100 µM (inactive); with HL-60 it was 5.77 µM (inactive); in the assay on MCF7, 31.3 µM (inactive); in the assay on HCT-15 it was 25.6 µM; with NCI-H522, > 100 µM (inactive); in the assay with SF-268 it was 50.2 µM (inactive). In addition, the GI50 in the assay on 786-0 is 41.1 µM (inactive); in the assay with UACC-62, 30.6 µM (inactive); in the assay with A549 it was > 96.8 µM (inactive); with SF-295 it was 57.3 µM (inactive); in the assay with COLO 205, 45 µM (inactive); with SNB-19, 59.6 µM (inactive). Also, the GI50 was 56.6 µM (inactive) with SK-MEL-5; > 100 µM (inactive) with TK-10; 79.1 µM (inactive) with HOP-92; 51.6 µM (inactive) in the assay on SN12C; 37.4 µM (inactive) in the assay with T47D; 43.1 µM (inactive) with OVCAR-8. In addition, the GI50 is 20.2 µM (inactive) with RPMI-8226 and 35.9 µM (inactive) in the assay with PC-3.

Take `CC12CCC(C(Br)(Br)C1=O)C2(C)C` (stereo not given): the GI50 was 0.493 µM (active) with EKVX; < 0.0148 µM (active) in the assay on HL-60; 0.082 µM (active) in the assay with MCF7; 0.164 µM in the assay on HCT-15; 0.0208 µM (active) in the assay on NCI-H522; 0.0989 µM (active) in the assay on SF-268. In addition, the GI50 in the assay on 786-0 was 0.0545 µM (active); in the assay with UACC-62, 0.682 µM (active); in the assay on A549, 4.07 µM (inactive); with SF-295, 3.49 µM (inactive); with COLO 205, 3.01 µM (inactive); in the assay with SNB-19, 9.62 µM (inactive). In addition, the GI50 in the assay with SK-MEL-5 is 0.348 µM (active); in the assay with TK-10, 2.09 µM (inactive); in the assay on HOP-92, 0.617 µM (active); with SN12C, 0.904 µM (active); with T47D, 0.0467 µM (active); in the assay on OVCAR-8, 1.69 µM (inactive). Moreover, the GI50 in the assay on RPMI-8226 is 0.0759 µM (active); with PC-3 it was 1.07 µM (active).
